Source: ChEMBL document CHEMBL1201862, “PubChem BioAssay data set” (2004)
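The compound was tested at five concentrations on cells cultured in 96-well plates, with a 48-hour exposure period. Abbreviation: GI50, concentration required for 50% inhibition of growth.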 Active and inactive are the calls of the source. Cut-off read from the data, not from the text of the source: active = GI50 up to about 1.1 µM and inactive = higher.

Key:
Experiment in all cases: NCI anticancer screen, dose series, 48 h
A549 = system: A549
M14 = system: M14
MOLT-4 = system: MOLT-4
UACC-62 = system: UACC-62
HL-60 = system: HL-60
SF-539 = system: SF-539
ACHN = system: ACHN
TK-10 = system: TK-10
A498 = system: A498
K562 = system: K562
CAKI-1 = system: CAKI-1
COLO 205 = system: COLO 205
U-251 = system: U-251
Malme-3M = system: Malme-3M
OVCAR-4 = system: OVCAR-4
UO-31 = system: UO-31
SW-620 = system: SW-620
SK-OV-3 = system: SK-OV-3
SK-MEL-28 = system: SK-MEL-28

Measured: GI50

CCC1C(=O)OCc2c1cc1n(c2=O)C(CC)c2c-1nc1ccccc1c2Cl (stereo unspecified)
inactive: A549 26.7 µM | M14 33.7 µM | MOLT-4 10.4 µM | UACC-62 18.2 µM | HL-60 22.2 µM | SF-539 17.3 µM | ACHN 27.4 µM | TK-10 40.9 µM | A498 21.9 µM | K562 27.9 µM | CAKI-1 23 µM | COLO 205 16.2 µM | U-251 19.3 µM | Malme-3M 38.8 µM | OVCAR-4 22.4 µM | UO-31 23.9 µM | SW-620 24 µM | SK-OV-3 33.9 µM | SK-MEL-28 35 µM

CCOC(=O)NC1CC2CCC1(OC)C=C2C (stereo unspecified)
inactive: A549 > 100 µM | M14 > 100 µM | MOLT-4 > 100 µM | UACC-62 > 100 µM | HL-60 > 100 µM | SF-539 > 100 µM | ACHN > 100 µM | TK-10 > 100 µM | A498 > 100 µM | K562 > 100 µM | CAKI-1 > 53.5 µM | COLO 205 > 100 µM | U-251 > 100 µM | Malme-3M > 100 µM | OVCAR-4 > 100 µM | UO-31 > 100 µM | SW-620 > 90.6 µM | SK-OV-3 > 100 µM | SK-MEL-28 > 100 µM

COc1cc([C@@H]2c3cc4c(cc3[C@@H](NC(=O)c3ccc(C(C)=O)cc3)C3COC(=O)[C@@H]32)OCO4)cc(OC)c1O (stereo partly specified)
inactive: M14 1.51 µM | TK-10 5.81 µM | A498 1.66 µM | K562 1.48 µM | CAKI-1 1.9 µM | COLO 205 3.61 µM | OVCAR-4 27.3 µM | UO-31 4.57 µM | SK-OV-3 1.56 µM | SK-MEL-28 2.98 µM
active: A549 0.0311 µM | MOLT-4 < 0.01 µM | UACC-62 0.206 µM | HL-60 0.0867 µM | SF-539 0.316 µM | ACHN 0.189 µM | U-251 0.0743 µM | Malme-3M 0.254 µM | SW-620 0.24 µM

COc1ccc(OC(C(=O)O)C(C)C)c2c1CCCC2=O (stereo unspecified)
inactive: A549 > 100 µM | M14 > 100 µM | MOLT-4 > 100 µM | UACC-62 > 100 µM | HL-60 > 100 µM | SF-539 > 100 µM | ACHN > 100 µM | TK-10 > 100 µM | A498 > 100 µM | K562 > 100 µM | CAKI-1 > 100 µM | COLO 205 > 100 µM | U-251 > 100 µM | Malme-3M > 100 µM | OVCAR-4 > 100 µM | UO-31 > 100 µM | SW-620 > 100 µM | SK-OV-3 > 100 µM | SK-MEL-28 > 100 µM

CC1=CC(C)(C)N=C2SC(c3ccc(N)cc3)=NN12
inactive: A549 51.9 µM | M14 > 83.8 µM | MOLT-4 42.2 µM | UACC-62 44.6 µM | HL-60 18.1 µM | SF-539 > 100 µM | ACHN 69.3 µM | TK-10 > 100 µM | A498 63.4 µM | K562 32.6 µM | CAKI-1 61.8 µM | COLO 205 42.8 µM | U-251 59.8 µM | Malme-3M > 100 µM | OVCAR-4 > 93.8 µM | UO-31 28 µM | SW-620 > 41 µM | SK-OV-3 > 100 µM | SK-MEL-28 > 100 µM

CN/N=C(/Cc1occc(=O)c1O)C(=O)Nc1ccc(C)c(C)c1
inactive: A549 > 100 µM | M14 > 100 µM | MOLT-4 > 100 µM | UACC-62 > 100 µM | HL-60 > 100 µM | SF-539 > 100 µM | ACHN > 100 µM | TK-10 > 100 µM | A498 > 100 µM | K562 > 100 µM | CAKI-1 > 100 µM | COLO 205 > 100 µM | U-251 > 100 µM | Malme-3M > 100 µM | OVCAR-4 > 100 µM | UO-31 > 100 µM | SW-620 > 100 µM | SK-OV-3 > 100 µM | SK-MEL-28 > 100 µM

CN(/N=C/c1cccc2cccnc12)c1ccccc1
inactive: A549 > 100 µM | M14 > 100 µM | MOLT-4 > 100 µM | UACC-62 > 100 µM | HL-60 > 100 µM | SF-539 37.2 µM | ACHN 99.5 µM | TK-10 71.1 µM | A498 > 100 µM | K562 > 100 µM | CAKI-1 7.85 µM | COLO 205 > 100 µM | U-251 > 100 µM | Malme-3M > 100 µM | OVCAR-4 87.5 µM | UO-31 > 100 µM | SW-620 > 100 µM | SK-OV-3 > 100 µM | SK-MEL-28 > 100 µM

O=C(Nc1c(Cl)cc([N+](=O)[O-])cc1Cl)C(=O)C(C1OC(=O)c2ccccc21)[N+](=O)[O-] (stereo unspecified)
inactive: A549 > 100 µM | M14 > 100 µM | MOLT-4 > 100 µM | UACC-62 > 100 µM | HL-60 > 100 µM | SF-539 > 100 µM | ACHN > 100 µM | TK-10 > 100 µM | A498 31.6 µM | K562 > 100 µM | CAKI-1 > 100 µM | COLO 205 > 100 µM | U-251 > 100 µM | Malme-3M > 100 µM | OVCAR-4 > 100 µM | UO-31 23.5 µM | SW-620 > 100 µM | SK-OV-3 > 100 µM | SK-MEL-28 > 100 µM

Cc1noc(/N=C2\C=C(Nc3onc(C)c3C)C(=O)c3ccccc32)c1C
inactive: A549 87.1 µM | M14 > 100 µM | MOLT-4 > 100 µM | UACC-62 27.7 µM | HL-60 18.7 µM | SF-539 > 100 µM | ACHN > 100 µM | TK-10 > 100 µM | A498 > 100 µM | K562 8.81 µM | CAKI-1 > 100 µM | COLO 205 > 100 µM | U-251 46.1 µM | Malme-3M > 100 µM | OVCAR-4 > 100 µM | UO-31 17.6 µM | SW-620 > 100 µM | SK-OV-3 > 100 µM | SK-MEL-28 > 100 µM

O=C(CCN(C(=O)O)S(=O)(=O)c1ccc(NC(=O)c2ccccc2)cc1)NC1CCCCC1
inactive: A549 > 100 µM | M14 > 100 µM | MOLT-4 21.4 µM | UACC-62 > 100 µM | HL-60 30.3 µM | SF-539 > 100 µM | ACHN > 100 µM | TK-10 > 100 µM | A498 > 100 µM | K562 27.4 µM | CAKI-1 > 100 µM | COLO 205 47.4 µM | U-251 36.3 µM | Malme-3M > 100 µM | OVCAR-4 > 100 µM | UO-31 > 100 µM | SW-620 16.3 µM | SK-OV-3 > 100 µM | SK-MEL-28 > 100 µM

O=C(CCC(=O)C1CCC/C1=N/O)Nc1ccc(Cl)cc1 (stereo unspecified)
inactive: A549 > 100 µM | M14 > 100 µM | MOLT-4 > 100 µM | UACC-62 > 100 µM | HL-60 > 100 µM | SF-539 > 100 µM | ACHN > 100 µM | TK-10 > 100 µM | A498 > 100 µM | K562 > 100 µM | CAKI-1 > 100 µM | COLO 205 > 100 µM | U-251 > 100 µM | Malme-3M > 100 µM | OVCAR-4 > 100 µM | UO-31 > 100 µM | SW-620 > 100 µM | SK-OV-3 > 100 µM | SK-MEL-28 > 100 µM

O=C1CCSSCCC(=O)NCCN1
inactive: A549 > 100 µM | M14 > 100 µM | MOLT-4 > 100 µM | UACC-62 > 100 µM | HL-60 > 100 µM | SF-539 > 100 µM | ACHN > 100 µM | TK-10 > 100 µM | A498 > 100 µM | K562 > 100 µM | CAKI-1 > 100 µM | COLO 205 > 100 µM | U-251 > 100 µM | Malme-3M > 100 µM | OVCAR-4 > 100 µM | UO-31 > 100 µM | SW-620 > 100 µM | SK-OV-3 > 100 µM | SK-MEL-28 > 100 µM

CN1Cc2c(nc(-c3ccccc3)c[n+]2[O-])N(C)C1
inactive: A549 > 100 µM | M14 > 100 µM | MOLT-4 > 100 µM | UACC-62 > 100 µM | HL-60 > 100 µM | SF-539 > 100 µM | ACHN > 100 µM | TK-10 > 100 µM | A498 > 100 µM | K562 > 100 µM | CAKI-1 > 100 µM | COLO 205 > 100 µM | U-251 > 100 µM | Malme-3M > 100 µM | OVCAR-4 > 100 µM | UO-31 > 100 µM | SW-620 > 100 µM | SK-OV-3 > 100 µM | SK-MEL-28 > 100 µM

CC(=O)N/C=C/c1cc(O)ccc1O
inactive: A549 > 61.8 µM | M14 33.3 µM | MOLT-4 11.9 µM | UACC-62 32.2 µM | HL-60 10.1 µM | SF-539 35.5 µM | ACHN 18.9 µM | TK-10 39.2 µM | A498 51.3 µM | K562 35.9 µM | CAKI-1 16.6 µM | COLO 205 29.1 µM | U-251 37.2 µM | Malme-3M > 44.6 µM | OVCAR-4 32.6 µM | UO-31 23.4 µM | SW-620 13.9 µM | SK-OV-3 > 58.5 µM | SK-MEL-28 32.8 µM
